Source: patent US7709471B2, “Compounds” (AstraZeneca AB, priority 2006, dated 2010)

Columns and labels:
recombinant Plk1 = recombinant Plk1 (Homo sapiens, UniProt P53350); assay: In Vitro Plk1 Enzyme Assay (SPA, GST-Cdc25C phosphorylation); type: biochemical; conditions: ATP 64 nM, 90 minutes, read-out: IC50 (Plk1 enzyme inhibition)
[1] = tested on: human colon tumour cell line HT29; assay: Cellular Assay (phosphohistone H3 Ser10 mitotic marker, HT29); type: cell-based; conditions: HT-29, 24 h, HT29 cells, read-out: IC50 (cellular assay, phosphohistone H3)
Procedure: Chromosome condensation in mitosis is accompanied by phosphorylation of histone H3 on serine 10.
After 24 hours, cells were fixed in 3.7% (v/v) formaldehyde then permeabilised and blocked for 10 minutes in 100 μl 0.5% (v/v) Triton X-100, 1% (w/v) bovine serum albumin (BSA) in phosphate buffered saline (PBS). […] The raw assay data were analysed by non-linear regression analysis and used to determine an IC50 value for each compound.

Sequence of recombinant Plk1 (P53350 whole entry): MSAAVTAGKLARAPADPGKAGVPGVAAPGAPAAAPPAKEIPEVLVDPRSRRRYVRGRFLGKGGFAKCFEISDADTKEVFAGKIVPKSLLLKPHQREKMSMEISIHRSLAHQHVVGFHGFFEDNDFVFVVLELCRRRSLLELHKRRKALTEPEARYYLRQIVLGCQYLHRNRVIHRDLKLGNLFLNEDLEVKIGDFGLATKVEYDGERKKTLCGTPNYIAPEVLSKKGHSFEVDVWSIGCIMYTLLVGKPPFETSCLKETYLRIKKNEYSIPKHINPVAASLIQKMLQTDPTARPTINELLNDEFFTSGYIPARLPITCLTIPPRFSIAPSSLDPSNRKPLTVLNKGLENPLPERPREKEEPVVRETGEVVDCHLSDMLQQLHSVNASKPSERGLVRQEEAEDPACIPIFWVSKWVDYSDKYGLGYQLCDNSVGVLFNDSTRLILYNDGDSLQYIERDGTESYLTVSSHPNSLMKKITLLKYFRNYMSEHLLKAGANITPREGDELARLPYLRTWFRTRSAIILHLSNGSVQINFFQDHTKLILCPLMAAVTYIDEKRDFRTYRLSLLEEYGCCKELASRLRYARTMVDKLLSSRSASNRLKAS

Structure (SMILES) | IC50 (recombinant Plk1) | IC50 [1]
COc1cc(C(=O)NCCN2CCOCC2)ccc1Nc1ncc2c(n1)N(C(C)C)CCC(=O)N2C [Example 219, 3-methoxy-4-[(2-methyl-3-oxo-6-propan-2-yl-2,6,8,10-tetrazabicyclo[5.4.0]undeca-7,9,11-trien-9-yl)amino]-N-(2-morpholin-4-ylethyl)benzamide] | < 0.3 µM | < 1 µM
COc1cc(C(=O)NCCN2CCOCC2)ccc1Nc1ncc2c(n1)N(c1ccccc1)CCC(=O)N2C [Example 220, 3-methoxy-4-[(2-methyl-3-oxo-6-phenyl-2,6,8,10-tetrazabicyclo[5.4.0]undeca-8,10,12-trien-9-yl)amino]-N-(2-morpholin-4-ylethyl)benzamide] | < 1 µM | < 30 µM
COc1cc(C(=O)NC2CCN(C)CC2)ccc1Nc1ncc2c(n1)N(c1ccccc1)CCC(=O)N2C [Example 221, 3-methoxy-4-[(2-methyl-3-oxo-6-phenyl-2,6,8,10-tetrazabicyclo[5.4.0]undeca-8,10,12-trien-9-yl)amino]-N-(1-methyl-4-piperidyl)benzamide] | < 0.3 µM | < 30 µM
CN(C)CC(C)(C)CNC(=O)c1ccc(Nc2ncc3c(n2)N(c2ccccc2)CCC(=O)N3C)cc1 [Example 223, N-(3-dimethylamino-2,2-dimethyl-propyl)-4-[(2-methyl-3-oxo-6-phenyl-2,6,8,10-tetrazabicyclo[5.4.0]undeca-8,10,12-trien-9-yl)amino]benzamide] | < 1 µM | < 30 µM
CN1CCC(NC(=O)c2ccc(Nc3ncc4c(n3)N(c3ccccc3)CCC(=O)N4C)cc2)CC1 [Example 224, 4-[(2-methyl-3-oxo-6-phenyl-2,6,8,10-tetrazabicyclo[5.4.0]undeca-8,10,12-trien-9-yl)amino]-N-(1-methyl-4-piperidyl)benzamide] | < 0.3 µM | < 30 µM
CC(C)N1CCC(=O)N(C)c2cnc(Nc3ccc(C(=O)NCCN4CCOCC4)cc3Cl)nc21 [Example 228, 3-chloro-4-[(2-methyl-3-oxo-6-propan-2-yl-2,6,8,10-tetrazabicyclo[5.4.0]undeca-7,9,11-trien-9-yl)amino]-N-(2-morpholin-4-ylethyl)benzamide] | < 1 µM | < 30 µM
COCC(C)N1CCC(=O)N(C)c2cnc(Nc3ccc(C(=O)NC4CCN(C)CC4)cc3OC)nc21 (stereo not shown) [Example 230, 3-methoxy-4-[[6-(1-methoxypropan-2-yl)-2-methyl-3-oxo-2,6,8,10-tetrazabicyclo[5.4.0]undeca-7,9,11-trien-9-yl]amino]-N-(1-methyl-4-piperidyl)benzamide] | < 1 µM | < 30 µM
COc1cc(C(=O)NC2CCN(C)CC2)ccc1Nc1ncc2c(n1)N(Cc1ccoc1)CCC(=O)N2C [Example 231, 4-[[6-(3-furylmethyl)-2-methyl-3-oxo-2,6,8,10-tetrazabicyclo[5.4.0]undeca-8,10,12-trien-9-yl]amino]-3-methoxy-N-(1-methyl-4-piperidyl)benzamide] | < 0.3 µM | < 30 µM
COc1cc(C(=O)NC2CCCCC2)ccc1Nc1ncc2c(n1)N(C1CCN(C)CC1)CCC(=O)N2C [Example 233, N-cyclohexyl-3-methoxy-4-[[2-methyl-6-(1-methyl-4-piperidyl)-3-oxo-2,6,8,10-tetrazabicyclo[5.4.0]undeca-7,9,11-trien-9-yl]amino]benzamide] | < 1 µM | < 30 µM
COc1cc(C(=O)NC2CCN(C)CC2)ccc1Nc1ncc2c(n1)N(C1CCCC1)C(C)CC(=O)N2C (stereo not shown) [Example 234, 4-[(6-cyclopentyl-2,5-dimethyl-3-oxo-2,6,8,10-tetrazabicyclo[5.4.0]undeca-8,10,12-trien-9-yl)amino]-3-methoxy-N-(1-methyl-4-piperidyl)benzamide] | < 0.3 µM | < 1 µM
COc1cc(C(=O)NC2CCN(C)CC2)ccc1Nc1ncc2c(n1)N(C1CCCC1)CC(C)(C)C(=O)N2C [Example 235, 4-[(2-cyclopentyl-4,4,6-trimethyl-5-oxo-2,6,9,11-tetrazabicyclo[5.4.0]undeca-7,9,11-trien-10-yl)amino]-3-methoxy-N-(1-methyl-4-piperidyl)benzamide] | < 0.3 µM | < 0.3 µM
COc1cc(C(=O)NC2CCCN(C)C2)ccc1Nc1ncc2c(n1)N(C1CCCC1)CC(C)(C)C(=O)N2C (stereo not shown) [Example 243, 4-[(2-cyclopentyl-4,4,6-trimethyl-5-oxo-2,6,9,11-tetrazabicyclo[5.4.0]undeca-7,9,11-trien-10-yl)amino]-3-methoxy-N-(1-methyl-3-piperidyl)benzamide] | < 1 µM | < 0.3 µM
COCCN1CCC(NC(=O)c2ccc(Nc3ncc4c(n3)N(C3CCCC3)CC(C)(C)C(=O)N4C)c(OC)c2)CC1 [Example 244, 4-[(2-cyclopentyl-4,4,6-trimethyl-5-oxo-2,6,9,11-tetrazabicyclo[5.4.0]undeca-7,9,11-trien-10-yl)amino]-3-methoxy-N-[1-(2-methoxyethyl)-4-piperidyl]benzamide] | < 1 µM | < 0.3 µM
CN1CCC(NC(=O)c2ccc(Nc3ncc4c(n3)N(C3CCCC3)CC(C)(C)C(=O)N4C)cc2)CC1 [Example 245, 4-[(2-cyclopentyl-4,4,6-trimethyl-5-oxo-2,6,9,11-tetrazabicyclo[5.4.0]undeca-7,9,11-trien-10-yl)amino]-N-(1-methyl-4-piperidyl)benzamide] | < 0.3 µM | < 0.3 µM
COc1cc(C(=O)NC2CCN(C)CC2)ccc1Nc1ncc2c(n1)N(C1CCCC1)CC1(CC1)C(=O)N2C [Example 246, 4-(9′-cyclopentyl-5′-methyl-6′-oxo-5′,6′,8′,9′-tetrahydrospiro[cyclopropane-1,7′-pyrimido[5,4-b][1,4]diazepine]-2′-ylamino)-N-(1-methylpiperidin-4-yl)-3-methoxybenzamide] | < 0.3 µM | < 0.3 µM
CN1CCC(NC(=O)c2ccc(Nc3ncc4c(n3)N(c3ccccc3)CCC(=O)N4)c(Cl)c2)CC1 [Example 248, 3-chloro-N-(1-methyl-4-piperidyl)-4-[(3-oxo-6-phenyl-2,6,8,10-tetrazabicyclo[5.4.0]undeca-8,10,12-trien-9-yl)amino]benzamide] | < 100 µM | < 30 µM
CN(C)CC(C)(C)CNC(=O)c1ccc(Nc2ncc3c(n2)N(C2CCCC2)CCC(=O)N3)cc1 [Example 253, 4-[(6-cyclopentyl-3-oxo-2,6,8,10-tetrazabicyclo[5.4.0]undeca-8,10,12-trien-9-yl)amino]-N-(3-dimethylamino-2,2-dimethyl-propyl)benzamide] | < 100 µM | < 30 µM
O=C1CCN(C2CCCC2)c2nc(Nc3ccc(C(=O)NCCN4CCOCC4)cc3Cl)ncc2N1 [Example 257, 3-chloro-4-[(6-cyclopentyl-3-oxo-2,6,8,10-tetrazabicyclo[5.4.0]undeca-8,10,12-trien-9-yl)amino]-N-(2-morpholin-4-ylethyl)benzamide] | < 100 µM | < 30 µM
CN1CCC(NC(=O)c2cnc(Nc3ncc4c(n3)N(C3CCCC3)CCC(=O)N4C)s2)CC1 [Example 263, 2-[(6-cyclopentyl-2-methyl-3-oxo-2,6,8,10-tetrazabicyclo[5.4.0]undeca-8,10,12-trien-9-yl)amino]-N-(1-methyl-4-piperidyl)1,3-thiazole-5-carboxamide] | < 100 µM | < 30 µM
CN1CCC(NC(=O)c2cnc(Nc3ncc4c(n3)N(C3CCCC3)CCC(=O)N4C)o2)CC1 [Example 264, 2-[(6-cyclopentyl-2-methyl-3-oxo-2,6,8,10-tetrazabicyclo[5.4.0]undeca-8,10,12-trien-9-yl)amino]-N-(1-methyl-4-piperidyl)1,3-oxazole-5-carboxamide] | < 100 µM | < 30 µM
CN1CCC(NC(=O)c2coc(Nc3ncc4c(n3)N(C3CCCC3)CCC(=O)N4C)n2)CC1 [Example 265, 2-[(6-cyclopentyl-2-methyl-3-oxo-2,6,8,10-tetrazabicyclo[5.4.0]undeca-8,10,12-trien-9-yl)amino]-N-(1-methyl-4-piperidyl)1,3-oxazole-4-carboxamide] | < 100 µM | < 30 µM
CN1CCC(NC(=O)c2ccc(Nc3ncc4c(n3)N(C3CCCC3)CCC(=O)N4C)nc2)CC1 [Example 269, 6-[(6-cyclopentyl-2-methyl-3-oxo-2,6,8,10-tetrazabicyclo[5.4.0]undeca-8,10,12-trien-9-yl)amino]-N-(1-methyl-4-piperidyl)pyridine-3-carboxamide] | < 0.3 µM | < 1 µM
CN1CCC(NC(=O)c2ccc(Nc3ncc4c(n3)N(C3CCCC3)CCC(=O)N4C)cn2)CC1 [Example 270, 5-[(6-cyclopentyl-2-methyl-3-oxo-2,6,8,10-tetrazabicyclo[5.4.0]undeca-8,10,12-trien-9-yl)amino]-N-(1-methyl-4-piperidyl)pyridine-2-carboxamide] | < 0.3 µM | < 30 µM
COc1cc(C(=O)NC2CCN(C)CC2)ccc1Nc1ncc2c(n1)N(CC(=N)OC(C)CC(C)C)CCC(=O)N2C (stereo not shown) [Example 272, 3-methoxy-4-[[6-methyl-2-[(4-methylpentan-2-yloxycarbonimidoyl)methyl]-5-oxo-2,6,9,11-tetrazabicyclo[5.4.0]undeca-7,9,11-trien-10-yl]amino]-N-(1-methyl-4-piperidyl)benzamide] | < 1 µM | < 30 µM
COc1cc(C(=O)NC2CCCCC2)ccc1Nc1ncc2c(n1)N(CCN(C)C)CCC(=O)N2C [Example 275, N-cyclohexyl-4-[[2-(2-dimethylaminoethyl)-6-methyl-5-oxo-2,6,9,11-tetrazabicyclo[5.4.0]undeca-7,9,11-trien-10-yl]amino]-3-methoxy-benzamide] | < 100 µM | < 30 µM
COc1cc(C(=O)NC2CCCCC2)ccc1Nc1ncc2c(n1)N(CCN1CCOCC1)CCC(=O)N2C [Example 277, N-cyclohexyl-3-methoxy-4-[[6-methyl-2-(2-morpholin-4-ylethyl)-5-oxo-2,6,9,11-tetrazabicyclo[5.4.0]undeca-7,9,11-trien-10-yl]amino]benzamide] | < 100 µM | < 30 µM
